Experimental data reported in US20060019966A1, “Method for treating nervous system disorders and conditions” (Wyeth, priority 2004, published 2006).

What was measured:
[1] = target: T1, hNET (Homo sapiens, UniProt P23975); assay: Norepinephrine (NE) uptake assay, hNET function uptake; type: cell-based; conditions: MDCK-Net6 cells, [3H]NE uptake
T1 construct: expressed in transfected cells; host or cells: MDCK-Net6 (MDCK cells stably transfected with hNET)
Procedure: (§1) The JAR cell line (human placental choriocarcinoma) may be purchased from ATCC (Cat. No. HTB-144). […] For all assays, cells may be plated in Wallac 96-well sterile plates (PerkinElmer, Cat. No. 3983498).
Test compounds are prepared in DMSO (10 mM) and diluted in assay buffer according to test range (1 to 10,000 nM). Twenty-five microliters of assay buffer (maximum NE uptake) or test compound are added directly to triplicate wells containing cells in 200 μl of assay buffer. […] To initiate the NE uptake, [^3H]NE diluted in assay buffer (120 nM final assay concentration) is delivered in 25 μl aliquots to each well and the plates is incubated for 5 minutes (37° C.).

[2] = target: T2, hSERT (Homo sapiens, UniProt P31645); assay: Serotonin (5-HT) uptake assay, hSERT function uptake; type: cell-based; conditions: JAR cells, [3H]5-HT uptake
T2 construct: The methods for 5-HT functional reuptake using the JAR cell line; host or cells: JAR (human placental choriocarcinoma), staurosporine-stimulated
T2 sequence (P31645 whole entry): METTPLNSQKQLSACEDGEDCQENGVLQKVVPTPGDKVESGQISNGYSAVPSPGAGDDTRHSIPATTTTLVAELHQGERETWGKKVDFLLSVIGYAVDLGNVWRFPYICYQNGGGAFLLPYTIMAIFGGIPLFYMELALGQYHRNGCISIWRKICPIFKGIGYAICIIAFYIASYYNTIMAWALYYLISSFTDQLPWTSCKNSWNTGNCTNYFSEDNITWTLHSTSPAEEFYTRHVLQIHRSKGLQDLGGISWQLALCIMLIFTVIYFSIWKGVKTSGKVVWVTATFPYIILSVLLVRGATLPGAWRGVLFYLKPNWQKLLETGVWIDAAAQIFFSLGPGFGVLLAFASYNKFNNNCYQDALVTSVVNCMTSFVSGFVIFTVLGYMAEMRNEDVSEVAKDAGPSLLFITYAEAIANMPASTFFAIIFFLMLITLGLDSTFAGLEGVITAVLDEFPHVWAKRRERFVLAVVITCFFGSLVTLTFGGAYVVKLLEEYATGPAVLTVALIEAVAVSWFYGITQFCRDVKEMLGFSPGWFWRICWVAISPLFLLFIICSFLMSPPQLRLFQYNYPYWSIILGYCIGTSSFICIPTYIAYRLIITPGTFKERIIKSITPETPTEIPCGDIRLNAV
Procedure: as §1
The methods for 5-HT functional reuptake using the JAR cell line is modified using a previous literature report (Prasad, et al., Placenta, 1996. 17(4): 201-7). […] On day 2, cells are stimulated with staurosporine (40 nM) to increase the expression of the 5-HT transporter. On day 3, cells are removed from the cell incubator two hours prior to assay and maintained at room temperature to equilibrate the growth medium to ambient oxygen concentration. […] Data from these wells are used to define non-specific 5-HT uptake (minimum 5-HT uptake). Test compounds are prepared in DMSO (10 mM) and diluted in assay buffer according to test range (1 to 1,000 nM). Twenty-five microliters of assay buffer (maximum 5-HT uptake) or test compound are added directly to triplicate wells containing cells in 200 μl of assay buffer. The cells are incubated with the compound for 10 minutes (37° C.). To initiate the reaction, [^3H]hydroxytryptamine creatinine sulfate diluted in assay buffer is delivered in 25 μl aliquots to each well for a final test concentration of 15 nM. The cells are incubated with the reaction mixture for 5 minutes at 37° C. The 5-HT uptake reaction is terminated by decanting the assay buffer.

[3] = target: T3, recombinant human dopamine transporter (hDAT) (Homo sapiens, UniProt Q01959); assay: Dopamine uptake transporter binding assay (3H-WIN 35,428); conditions: inhibition of 3H-WIN 35,428 binding to hDAT membranes
T3 construct: purchased PerkinElmer RBHDATM
T3 sequence (Q01959 whole entry): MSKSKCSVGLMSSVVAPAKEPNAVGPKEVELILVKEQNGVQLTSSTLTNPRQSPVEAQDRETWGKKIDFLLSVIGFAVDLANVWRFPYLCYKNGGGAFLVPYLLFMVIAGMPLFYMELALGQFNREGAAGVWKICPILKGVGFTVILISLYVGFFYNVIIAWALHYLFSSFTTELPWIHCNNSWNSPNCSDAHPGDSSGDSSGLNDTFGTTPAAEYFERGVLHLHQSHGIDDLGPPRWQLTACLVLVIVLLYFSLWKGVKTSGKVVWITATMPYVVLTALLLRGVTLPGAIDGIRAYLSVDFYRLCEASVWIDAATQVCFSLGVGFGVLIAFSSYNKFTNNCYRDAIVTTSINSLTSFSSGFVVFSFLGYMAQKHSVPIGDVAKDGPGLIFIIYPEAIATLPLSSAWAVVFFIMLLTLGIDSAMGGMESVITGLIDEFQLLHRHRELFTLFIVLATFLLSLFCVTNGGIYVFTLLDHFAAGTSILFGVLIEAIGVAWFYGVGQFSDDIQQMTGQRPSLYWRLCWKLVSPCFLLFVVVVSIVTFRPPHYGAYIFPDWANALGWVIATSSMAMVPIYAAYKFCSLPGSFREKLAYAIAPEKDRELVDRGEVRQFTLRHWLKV

[4] = test system: tail skin temperature (TST) in ovariectomized (OVX) rats; assay: Telemetry rat model of ovariectomy-induced thermoregulatory dysfunction; type: in vivo; conditions: 30 mg/kg, sc, single dose
Excerpt: Telemetry model: This model has been modified from a previously reported protocol describing estrogen regulation of diurnal tail skin temperature (TST) patterns (Berendsen, et al., European Journal of Pharmacology, 2001, 419(1): 47-54). […] In ovariectomized (OVX) rats, TST is elevated over the entire 24-hour period, thus the usual decrease in TST during the active (dark) phase is lost, thus, a compound's ability to restore this lowering of TST during the active phase was examined. […] After a 7-day recovery period, TST readings were continuously recorded for the remainder of the study. Tail skin temperature readings were collected from each animal every 5 minutes with values obtained over a 10 second sampling period. The day before test day, an average baseline TST value was calculated for each animal by averaging temperature readings recorded during the 12 hour active (dark) phase. […]
Statistical analysis: Evaluation of a compound's ability to restore normal lowering of TST in the telemetry model was analyzed using hourly TST values calculated for each animal by averaging the 12 temperature readings obtained every 5 minutes over that recording time. […]

T1 sequence (P23975 whole entry): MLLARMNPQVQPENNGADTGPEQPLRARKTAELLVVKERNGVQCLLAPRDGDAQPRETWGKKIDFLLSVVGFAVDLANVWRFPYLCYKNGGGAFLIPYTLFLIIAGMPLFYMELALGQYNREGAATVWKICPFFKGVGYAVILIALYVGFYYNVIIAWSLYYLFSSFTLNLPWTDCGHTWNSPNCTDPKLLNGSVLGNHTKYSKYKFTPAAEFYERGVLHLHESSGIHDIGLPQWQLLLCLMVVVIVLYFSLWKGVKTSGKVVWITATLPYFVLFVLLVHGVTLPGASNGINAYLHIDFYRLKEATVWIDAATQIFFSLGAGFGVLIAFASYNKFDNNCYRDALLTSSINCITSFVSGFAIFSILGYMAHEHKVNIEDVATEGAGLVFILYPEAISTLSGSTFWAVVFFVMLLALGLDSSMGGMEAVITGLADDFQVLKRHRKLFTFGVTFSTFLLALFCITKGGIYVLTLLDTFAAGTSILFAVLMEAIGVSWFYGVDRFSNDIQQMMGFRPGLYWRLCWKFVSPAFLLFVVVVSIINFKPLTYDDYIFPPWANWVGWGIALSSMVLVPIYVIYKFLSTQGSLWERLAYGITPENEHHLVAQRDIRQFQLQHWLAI

Q: How did the EC50 [1] turn out when Cc1ccc(C23CNCC2C3)cc1 (single isomer, unassigned; (-)) [(−)-1-(4-methylphenyl)-3-azabicyclo[3.1.0]hexane] was run?
A: 1180 nM

Q: And the EC50 [2]?
A: 977 nM

Q: And the “hDAT binding (% I at 10 μM)” value [3]?
A: 55%

Q: What about the “effect on tail skin temperature (TST)” value [4] of the same molecule?
A: restored normal TST

Q: With Fc1ccc(C(OCCN2CCN(CCCc3ccccc3)CC2)c2ccc(F)cc2)cc1 [1-[2-[bis(4-fluorophenyl)methoxy]ethyl]-4-(3-phenylpropyl)piperazine, reference compound] as the molecule, how does the “effect on tail skin temperature (TST)” value [4] read?
A: restored normal TST
